# Measured values from patent US10111890B2, “9-aminomethyl minocycline compounds and uses thereof” (Paratek Pharmaceuticals, Inc., priority 2016, dated 2018).
# What was measured:
# [1] = human, in vivo
# [2] = system: ABSSSI known or suspected to be due to Gram-positive pathogens; assay: Phase 3 oral omadacycline vs oral linezolid in ABSSSI: Early Clinical Response 48-72 hours after first dose; type: in vivo, human; settings: for Early Clinical Success, %: micro-mITT, % of N1
# [3] = system: ABSSSI; assay: Earlier Phase 3 i.v.-to-oral omadacycline vs linezolid study in ABSSSI: clinical success; type: in vivo, human; settings: i.v. with switch to oral
# [4] = system: ABSSSI known or suspected to be due to Gram-positive pathogens; assay: Phase 3 oral omadacycline vs oral linezolid in ABSSSI: Investigator's Assessment of Clinical Response at PTE; type: in vivo, human; settings: for Overall Clinical Success at PTE, %: micro-mITT, % of N1
# [5] = 48-72 hours after first dose, mITT population
# [6] = Cellulitis/erysipelas, actual type, 48-72 hours, mITT
# [7] = Cellulitis/erysipelas, as randomized, 48-72 hours, mITT
# [8] = Major Abscess, actual type, 48-72 hours, mITT
# [9] = Major Abscess, as randomized, 48-72 hours, mITT
# [10] = Wound Infection, actual type, 48-72 hours, mITT
# [11] = Wound Infection, as randomized, 48-72 hours, mITT
# [12] = Cellulitis/erysipelas, actual type, mITT
# [13] = Cellulitis/erysipelas, as randomized, mITT
# [14] = Major Abscess, actual type, mITT
# [15] = Major Abscess, as randomized, mITT
# [16] = Wound Infection, actual type, mITT
# [17] = Wound Infection, as randomized, mITT
structure (smiles),measurement,setting,value
"CC(=O)NCC1CN(c2ccc(N3CCOCC3)c(F)c2)C(=O)O1 (stereo not drawn) [Linezolid, N-[[3-(3-fluoro-4-morpholinophenyl)-2-oxooxazolidin-5-yl]methyl]acetamide, reference compound]","discontinuation due to TEAE, % of subjects",[1],2.2%
same,"serious TEAEs, % of subjects",[1],2.5%
same,"treatment-emergent adverse events (TEAEs), % of subjects",[1],45.7%
same,Early Clinical Response: Clinical Failure,[2]; [5],32 (8.9) n (%)
same,Early Clinical Response: Clinical Failure or Indeterminate,[2]; [5],63 (17.5) n (%)
same,Early Clinical Response: Indeterminate,[2]; [5],31 (8.6) n (%)
same,Early Clinical Response: Clinical Success,"[2]; 48-72 hours after first dose, mITT population (N = 360 per arm)",297 (82.5) n (%)
same,Early Clinical Response: Clinical Success,"[2]; Cellulitis/erysipelas, actual type of infection, 48-72 hours, mITT",65 (77.4) n (%)
same,Early Clinical Response: Clinical Failure,[2]; [6],12 (14.3) n (%)
same,Early Clinical Response: Clinical Failure or Indeterminate,[2]; [6],19 (22.6) n (%)
same,Early Clinical Response: Indeterminate,[2]; [6],7 (8.3) n (%)
same,Early Clinical Response: Clinical Failure,[2]; [7],12 (14.3) n (%)
same,Early Clinical Response: Clinical Failure or Indeterminate,[2]; [7],19 (22.6) n (%)
same,Early Clinical Response: Indeterminate,[2]; [7],7 (8.3) n (%)
same,Early Clinical Response: Clinical Success,"[2]; Cellulitis/erysipelas, type of infection as randomized, 48-72 hours, mITT",65 (77.4) n (%)
same,Early Clinical Response: Clinical Success,"[2]; Major Abscess, actual type of infection, 48-72 hours, mITT",55 (88.7) n (%)
same,Early Clinical Response: Clinical Failure,[2]; [8],4 (6.5) n (%)
same,Early Clinical Response: Clinical Failure or Indeterminate,[2]; [8],7 (11.3) n (%)
same,Early Clinical Response: Indeterminate,[2]; [8],3 (4.8) n (%)
same,Early Clinical Response: Clinical Failure,[2]; [9],4 (6.5) n (%)
same,Early Clinical Response: Clinical Failure or Indeterminate,[2]; [9],7 (11.3) n (%)
same,Early Clinical Response: Indeterminate,[2]; [9],3 (4.8) n (%)
same,Early Clinical Response: Clinical Success,"[2]; Major Abscess, type of infection as randomized, 48-72 hours, mITT",55 (88.7) n (%)
same,Early Clinical Response: Clinical Success,"[2]; Wound Infection, actual type of infection, 48-72 hours, mITT",177 (82.7) n (%)
same,Early Clinical Response: Clinical Failure,[2]; [10],16 (7.5) n (%)
same,Early Clinical Response: Clinical Failure or Indeterminate,[2]; [10],37 (17.3) n (%)
same,Early Clinical Response: Indeterminate,[2]; [10],21 (9.8) n (%)
same,Early Clinical Response: Clinical Failure,[2]; [11],16 (7.5) n (%)
same,Early Clinical Response: Clinical Failure or Indeterminate,[2]; [11],37 (17.3) n (%)
same,Early Clinical Response: Indeterminate,[2]; [11],21 (9.8) n (%)
same,Early Clinical Response: Clinical Success,"[2]; Wound Infection, type of infection as randomized, 48-72 hours, mITT",177 (82.7) n (%)
same,"Early Clinical Success, %","[2]; baseline pathogen Clostridium perfringens, 48-72 hours after first dose",(100.0) %
same,"Early Clinical Success, %","[2]; baseline pathogen Enterobacter cloacae, 48-72 hours after first dose",(83.3) %
same,"Early Clinical Success, %","[2]; baseline pathogen Enterococcus faecalis VRE, 48-72 hours after first dose",(100.0) %
same,"Early Clinical Success, %","[2]; baseline pathogen Enterococcus faecalis VSE, 48-72 hours after first dose",(60.0) %
same,"Early Clinical Success, %","[2]; baseline pathogen Enterococcus faecalis, 48-72 hours after first dose",(66.7) %
same,"Early Clinical Success, %","[2]; baseline pathogen Enterococcus faecium VSE, 48-72 hours after first dose",(100.0) %
same,"Early Clinical Success, %","[2]; baseline pathogen Enterococcus faecium, 48-72 hours after first dose",(100.0) %
same,"Early Clinical Success, %","[2]; baseline pathogen Escherichia coli, 48-72 hours after first dose",(100.0) %
same,"Early Clinical Success, %","[2]; baseline pathogen Finegoldia magna, 48-72 hours after first dose",(0.0) %
same,"Early Clinical Success, %","[2]; baseline pathogen Klebsiella pneumoniae, 48-72 hours after first dose",(83.3) %
same,"Early Clinical Success, %","[2]; baseline pathogen MRSA, 48-72 hours after first dose",(88.8) %
same,"Early Clinical Success, %","[2]; baseline pathogen MSSA, 48-72 hours after first dose",(79.2) %
same,"Early Clinical Success, %","[2]; baseline pathogen Prevotella denticola, 48-72 hours after first dose",(100.0) %
same,"Early Clinical Success, %","[2]; baseline pathogen Prevotella melaninogenica, 48-72 hours after first dose",(100.0) %
same,"Early Clinical Success, %","[2]; baseline pathogen Staphylococcus aureus, 48-72 hours after first dose",(83.3) %
same,"Early Clinical Success, %","[2]; baseline pathogen Streptococcus agalactiae, 48-72 hours after first dose",(50.0) %
same,"Early Clinical Success, %","[2]; baseline pathogen Streptococcus anginosus group, 48-72 hours after first dose",(80.0) %
same,"Early Clinical Success, %","[2]; baseline pathogen Streptococcus anginosus, 48-72 hours after first dose",(85.0) %
same,"Early Clinical Success, %","[2]; baseline pathogen Streptococcus constellatus, 48-72 hours after first dose",(100.0) %
same,"Early Clinical Success, %","[2]; baseline pathogen Streptococcus intermedius, 48-72 hours after first dose",(75.0) %
same,"Early Clinical Success, %","[2]; baseline pathogen Streptococcus pyogenes, 48-72 hours after first dose",(81.3) %
same,clinical success based on investigator's assessment of clinical response,[3]; 7-14 days after the last dose,83.6%
same,clinical success based on a reduction of lesion size,"[3]; 48-72 hours after the first dose, FDA primary analysis population (N=627)",85.5%
same,Overall clinical response at PTE: Clinical Success,"[4]; Cellulitis/erysipelas, actual type of infection, investigator assessment, mITT",78 (92.9) n (%)
same,Overall clinical response at PTE: Clinical Failure,[4]; [12],1 (1.2) n (%)
same,Overall clinical response at PTE: Clinical Failure or Indeterminate,[4]; [12],6 (7.1) n (%)
same,Overall clinical response at PTE: Indeterminate,[4]; [12],5 (6.0) n (%)
same,Overall clinical response at PTE: Clinical Failure,[4]; [13],1 (1.2) n (%)
same,Overall clinical response at PTE: Clinical Failure or Indeterminate,[4]; [13],6 (7.1) n (%)
same,Overall clinical response at PTE: Indeterminate,[4]; [13],5 (6.0) n (%)
same,Overall clinical response at PTE: Clinical Success,"[4]; Cellulitis/erysipelas, type of infection as randomized, investigator assessment, mITT",78 (92.9) n (%)
same,Overall clinical response at PTE: Clinical Success,"[4]; Major Abscess, actual type of infection, investigator assessment, mITT",49 (79.0) n (%)
same,Overall clinical response at PTE: Clinical Failure,[4]; [14],3 (4.8) n (%)
same,Overall clinical response at PTE: Clinical Failure or Indeterminate,[4]; [14],13 (21.0) n (%)
same,Overall clinical response at PTE: Indeterminate,[4]; [14],10 (16.1) n (%)
same,Overall clinical response at PTE: Clinical Failure,[4]; [15],3 (4.8) n (%)
same,Overall clinical response at PTE: Clinical Failure or Indeterminate,[4]; [15],13 (21.0) n (%)
same,Overall clinical response at PTE: Indeterminate,[4]; [15],10 (16.1) n (%)
same,Overall clinical response at PTE: Clinical Success,"[4]; Major Abscess, type of infection as randomized, investigator assessment, mITT",49 (79.0) n (%)
same,Overall clinical response at PTE: Clinical Success,"[4]; Wound Infection, actual type of infection, investigator assessment, mITT",164 (76.6) n (%)
same,Overall clinical response at PTE: Clinical Failure,[4]; [16],17 (7.9) n (%)
same,Overall clinical response at PTE: Clinical Failure or Indeterminate,[4]; [16],50 (23.4) n (%)
same,Overall clinical response at PTE: Indeterminate,[4]; [16],33 (15.4) n (%)
same,Overall clinical response at PTE: Clinical Failure,[4]; [17],17 (7.9) n (%)
same,Overall clinical response at PTE: Clinical Failure or Indeterminate,[4]; [17],50 (23.4) n (%)
same,Overall clinical response at PTE: Indeterminate,[4]; [17],33 (15.4) n (%)
same,Overall clinical response at PTE: Clinical Success,"[4]; Wound Infection, type of infection as randomized, investigator assessment, mITT",164 (76.6) n (%)
same,"Overall Clinical Success at PTE, %","[4]; baseline pathogen Clostridium perfringens, investigator assessment",(77.8) %
same,"Overall Clinical Success at PTE, %","[4]; baseline pathogen Enterobacter cloacae, investigator assessment",(100.0) %
same,"Overall Clinical Success at PTE, %","[4]; baseline pathogen Enterococcus faecalis VRE, investigator assessment",(100.0) %
same,"Overall Clinical Success at PTE, %","[4]; baseline pathogen Enterococcus faecalis VSE, investigator assessment",(70.0) %
same,"Overall Clinical Success at PTE, %","[4]; baseline pathogen Enterococcus faecalis, investigator assessment",(75.0) %
same,"Overall Clinical Success at PTE, %","[4]; baseline pathogen Enterococcus faecium VSE, investigator assessment",(100.0) %
same,"Overall Clinical Success at PTE, %","[4]; baseline pathogen Enterococcus faecium, investigator assessment",(100.0) %
same,"Overall Clinical Success at PTE, %","[4]; baseline pathogen Escherichia coli, investigator assessment",(100.0) %
same,"Overall Clinical Success at PTE, %","[4]; baseline pathogen Finegoldia magna, investigator assessment",(0.0) %
same,"Overall Clinical Success at PTE, %","[4]; baseline pathogen Klebsiella pneumoniae, investigator assessment",(66.7) %
same,"Overall Clinical Success at PTE, %","[4]; baseline pathogen MRSA, investigator assessment",(79.4) %
same,"Overall Clinical Success at PTE, %","[4]; baseline pathogen MSSA, investigator assessment",(79.2) %
same,"Overall Clinical Success at PTE, %","[4]; baseline pathogen Prevotella denticola, investigator assessment",(0.0) %
same,"Overall Clinical Success at PTE, %","[4]; baseline pathogen Prevotella melaninogenica, investigator assessment",(100.0) %
same,"Overall Clinical Success at PTE, %","[4]; baseline pathogen Staphylococcus aureus, investigator assessment",(79.8) %
same,"Overall Clinical Success at PTE, %","[4]; baseline pathogen Streptococcus agalactiae, investigator assessment",(50.0) %
same,"Overall Clinical Success at PTE, %","[4]; baseline pathogen Streptococcus anginosus group, investigator assessment",(73.3) %
same,"Overall Clinical Success at PTE, %","[4]; baseline pathogen Streptococcus anginosus, investigator assessment",(80.0) %
same,"Overall Clinical Success at PTE, %","[4]; baseline pathogen Streptococcus constellatus, investigator assessment",(71.4) %
same,"Overall Clinical Success at PTE, %","[4]; baseline pathogen Streptococcus intermedius, investigator assessment",(66.7) %
same,"Overall Clinical Success at PTE, %","[4]; baseline pathogen Streptococcus pyogenes, investigator assessment",(56.3) %
same,Overall clinical response at PTE: Clinical Failure,"[4]; investigator assessment, CE-PTE",13 (4.5) n (%)
same,Overall clinical response at PTE: Clinical Success,"[4]; investigator assessment, CE-PTE (N = 284 / N = 292)",279 (95.5) n (%)
same,Overall clinical response at PTE: Clinical Failure,"[4]; investigator assessment, mITT",21 (5.8) n (%)
same,Overall clinical response at PTE: Clinical Failure or Indeterminate,"[4]; investigator assessment, mITT",69 (19.2) n (%)
same,Overall clinical response at PTE: Indeterminate,"[4]; investigator assessment, mITT",48 (13.3) n (%)
same,Overall clinical response at PTE: Clinical Success,"[4]; investigator assessment, mITT (N = 360 per arm)",291 (80.8) n (%)
